Here are results for 2 molecules from US20060229255A1, “Identification of n-alkylglycine trimers for induction of apoptosis” (priority 2003, published 2006).

One test relates to HT29 cells. Put plainly: DNA analysis by flow cytometry (cell cycle profile, sub-G1 peak). Format: cell-based, human. The note with it: for Dose dependence of subG1 peak: HT29, 72 h, increasing dose 1-35 or 40 μM; for Apoptosis induction (sub-G1 peak detection): HT29, 72 h treatment; for Cells in G1-phase: HT29, compound alone, 24 h in culture; for Maximum apoptosis in time-course: HT29, highest dose assayed, 72 h; for Cell population retained in G2/M phase: HT29, in combination with low doses of Taxol. On the procedure: DNA analysis. Floating and adherent cells treated with the compounds were collected by trypsinization and washed twice with PBS. The cells were permeabilized overnight at −20° C. with ice-cold ethanol 70%. The cells were washed in PBS, adjusted at 0.5×10^6 cells/ml and incubated with 20 μg/ml Propidium Iodide and 2 μl/ml RNase DNase-free for 30 min at 30° C. Cells were maintained overnight at 4° C. and then analysed by flow cytometry. Flow cytometric experiments were carried out using an Epics XL flow cytometer (Coulter Corporation, Hialeah, Fla.). The instrumet was set up with the standard configuration: excitation of the sample was done using an standard 488 nm air-cooled argon-ion laser at 15 mW power. Forward scatter (FSC), side scatter (SSC) and red (620 nm) fluorescence for PI were adquired. Optical alignement was based on optimized signal from […] fluorescent beads (Immunocheck, Epics Division). Time was used as a control of the stability of the instrument. Red fluorescence was projected on a 1024 monoparametrical histogram. Aggregates were excluded gating single cells by their area vs. peak fluorescence signal. DNA analysis (Ploidy analysis) on single fluorescence histograms was done using Multicycle software (Phoenix Flow Systems, San Diego, Calif.).
FIG. 2. N10-13-10C and N13-13-10C are pro-apoptotic peptoids while N4-13-10C and N5-13-10C are not. Cell cycle profile was analysed by DNA staining. HT29 cells were grown for 72 h in presence of N4-13-10C (100 μM), N5-13-10C (100 μM), N10-13-10C (40 μM), N13-13-10C (35 μM), Taxol (11 nM) or DMSO as negative control. Fraction of cells at G0/G1, S, G2/M or subG1 peak are specified.
FIG. 3. Specific pro apoptotic effect of N10-13-10C and N13-13-10C. (A) SubG1 peak analysis on several cell lines including HT29, LoVo, MDA.MB.435 and its lung metastatic derivatives lung 2 and lung 6 after 72 h treatment with N10-13-10C or N13-13-10C at IC50 values specified on Table 1. (B) Dose-response analysis of subG1 peak after 72 h treatment of HT29 cells with N 10-13-10C or N13-13-10C at 1, 5, 10, 20, 30 and 35 or 40 μM, respectively. Both, floating and adherent cells were collected, fixed, stained with propidium iodide and DNA content was evaluated by flow cytometry. The fraction of cells with hypodiplod DNA content, i.e. subG1 peak are shown.
FIG. 4. (A) Time course analysis of cell cycle profile after treatment of HT29 cells with N10-13-10C (40 μM), N13-13-10C (35 μM) and/or Taxol (11 nM) for 24 h, 48 h and 72 h. The fraction of cells with subG1 (dark blue), G0/G1 (red), S (yellow), G2/M (blue) DNA content are shown as % of total cell population. (B.) N13-13-10C pulse experiments. HT29 cells were treated transiently with 35 μM N13-13-10C for 1, 3, 6, 24, 48 or 72 h and returned to medium without product for up to 72 h. DNA staining was analyzed by flow cytometry.

The next test deals with T1, Cdk4/CycD1 (Homo sapiens, UniProt P11802).
T1 construct: GST; host or cells: Sf9 insect cells, baculovirus
T1 sequence (P11802 whole entry): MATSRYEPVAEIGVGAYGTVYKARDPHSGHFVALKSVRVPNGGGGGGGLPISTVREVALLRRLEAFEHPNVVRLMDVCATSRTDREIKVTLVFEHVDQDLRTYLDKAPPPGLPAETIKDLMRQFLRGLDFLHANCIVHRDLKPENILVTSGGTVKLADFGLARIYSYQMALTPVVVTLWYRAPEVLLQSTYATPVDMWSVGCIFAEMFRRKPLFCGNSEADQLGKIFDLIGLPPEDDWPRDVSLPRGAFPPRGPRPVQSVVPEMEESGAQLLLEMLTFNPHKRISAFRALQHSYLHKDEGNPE
T1 sequence (P24385 whole entry partner): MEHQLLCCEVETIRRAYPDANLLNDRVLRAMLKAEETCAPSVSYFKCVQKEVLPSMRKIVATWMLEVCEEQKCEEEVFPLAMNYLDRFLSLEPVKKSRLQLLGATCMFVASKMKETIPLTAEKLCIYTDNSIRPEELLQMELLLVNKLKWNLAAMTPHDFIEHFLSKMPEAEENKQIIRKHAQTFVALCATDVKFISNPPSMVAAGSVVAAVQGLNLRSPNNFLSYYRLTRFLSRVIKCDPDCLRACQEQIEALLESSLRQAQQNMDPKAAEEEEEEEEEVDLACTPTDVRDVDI
Put plainly: 33PanQinase Cdk4/CycD1 kinase assay (pRb phosphorylation). Format: biochemical. The settings on record: 3 μM or 30 μM. As to the method: ^33Pan Qinase assays containing cycD, Cdk4 and pRb protein in the presence of 3 μM or 30 μM, N10-13-10C or N13-13-10C, were performed.
To assay Cdk4/CycD1 kinase activity, Cdk4 was expressed in Sf9 insect cells as recombinant GST-fusion protein by means of baculovirus expression system. Kinase assay was performed in 96-well FlashPlates (NEN) in a 50 μl reaction volume using the ^33PanQinase activity assay (ProQinase) and Beckman Coulter/Sagian robotic system. The reaction cocktail was 20 μl of assay buffer (50 mM Hepes-NaOH pH 7.5, 3 mM MgCl2, 3 mM MnCl2, 3 μM Na-orthovanadate, 1 mM DTT, 0.1 μM […]); 1 μg pRb protein; 100 ng enzyme; and 5 μl of test compound in 10% DMSO. The reaction cocktail was incubated at 30° C. for 80 min. The reaction was stopped with 50 μl of 0.2% (v/v) H3PO4, plates were aspirated and washed two times with 0.9% (w/v) NaCl. Incorporation of ^33P was determined with a microplate scintillation counter (Microbeta, Wallac).

For `COc1ccc(CCN(CC(=O)N(CCc2ccccc2)CC(N)=O)C(=O)CNCCc2ccccc2)cc1` [N10-13-10C], in the test on HT29 cells, the “Dose dependence of subG1 peak” value is recorded as “dose-dependent apoptosis”, the “Apoptosis induction (sub-G1 peak detection)” value is given as “able to induce apoptosis”, the “Cells in G1-phase” value is recorded as “increase the percentage of cells in G1-phase” and the “Maximum apoptosis in time-course” value is recorded as 20%. Also, the “Cell population retained in G2/M phase” value in the test with HT29 cells is recorded as “about 60%”. Moreover, the “Inhibition of pRb phosphorylation by cycD/Cdk4” value on Cdk4/CycD1 was “No inhibition”.
Consider `COc1ccc(CCNCC(=O)N(CCc2ccc(OC)cc2)CC(=O)N(CCc2ccccc2)CC(N)=O)cc1` [N13-13-10C], for which the “Pulse necessary for irreversible induction of apoptosis” value in the test on HT29 cells (HT29, 35 μM, returned to drug-free medium up to 72 h) is at least 24 h. Moreover, in the test on HT29 cells, the “Dose dependence of subG1 peak” value is given as “dose-dependent apoptosis”, the “Apoptosis induction (sub-G1 peak detection)” value is recorded as “able to induce apoptosis”, the “Cells in G1-phase” value is recorded as “increase the percentage of cells in G1-phase” and the “Maximum apoptosis in time-course” value is reported as “around 40%”. Moreover, in the test with HT29 cells, the “Cell population retained in G2/M phase” value is given as “about 60%”. In the test on HT29 cells (HT29, pulses of 1, 3 and 6 h), the “Cell cycle profile after short time pulses” value is on record as “do not differ from control cells”. Moreover, the “Inhibition of pRb phosphorylation by cycD/Cdk4” value on Cdk4/CycD1 is “No inhibition”.
